What was measured:
[1] = test system: morningglory; test: Test B pre/postemergence morningglory; format: in vivo, Ipomoea hederacea
Procedure, shortened: (§1)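 Response is a visual 0-to-10 score relative to untreated plants, where 0 means no effect and 10 means complete control, taken twelve to sixteen days after application. Treatments went onto soil at planting and onto foliage of 1- to 4-leaf plants, using a surfactant-containing non-phytotoxic solvent.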

[2] = test system: wheat; test: Test B pre/postemergence wheat; format: in vivo, Triticum aestivum
Procedure, shortened: as §1

[3] = test system: crabgrass; test: Test B pre/postemergence crabgrass; format: in vivo, Digitaria sanguinalis
Procedure, shortened: as §1

[4] = test system: surinam grass; test: Test B pre/postemergence surinam grass; format: in vivo, Brachiaria decumbens
Procedure, shortened: as §1

[5] = test system: cocklebur; test: Test B pre/postemergence cocklebur; format: in vivo, Xanthium strumarium
Procedure, shortened: as §1

[6] = test system: wild oat; test: Test B pre/postemergence wild oat; format: in vivo, Avena fatua
Procedure, shortened: as §1

[7] = test system: rice; test: Test B flood test rice; format: in vivo, Oryza sativa
Procedure, shortened: (§2)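 Each value is a visual injury score relative to controls, with 10 meaning complete control and 0 no effect. Evaluation took place twelve to sixteen days after the 2-leaf-stage plants were treated and kept in the greenhouse.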

[8] = test system: giant foxtail; test: Test B pre/postemergence giant foxtail; format: in vivo, Setaria faberii
Procedure, shortened: as §1

[9] = test system: bamyardgrass; test: Test B flood test barnyardgrass; format: in vivo, Echinochloa crus-galli
Procedure, shortened: as §2

[10] = test system: purple nutsedge; test: Test B pre/postemergence purple nutsedge; format: in vivo, Cyperus rotundus
Procedure, shortened: as §1

[11] = test system: bedstraw; test: Test B pre/postemergence bedstraw; format: in vivo, Galium aparine; settings: Postemergence
Procedure, shortened: as §1

[12] = test system: blackgrass; test: Test B pre/postemergence blackgrass; format: in vivo, Alopecurus myosuroides
Procedure, shortened: as §1

[13] = test system: pigweed; test: Test B pre/postemergence pigweed; format: in vivo, Amaranthus retroflexus
Procedure, shortened: as §1

[14] = test system: sugar beet; test: Test B pre/postemergence sugar beet; format: in vivo, Beta vulgaris
Procedure, shortened: as §1

[15] = test system: duck salad; test: Test B flood test duck salad; format: in vivo, Heteranthera limosa
Procedure, shortened: as §2

[16] = test system: velvetleaf; test: Test B pre/postemergence velvetleaf; format: in vivo, Abutilon theophrasti
Procedure, shortened: as §1

[17] = Postemergence, Rate 125 g/ha, scale 0 to 10, 0 is no effect, 10 is complete control
[18] = Preemergence, Rate 62 g/ha, scale of 0 to 10 where 0 is no effect and 10 is complete control
[19] = Preemergence, Rate 250 g/ha, scale of 0 to 10 where 0 is no effect and 10 is complete control
[20] = Preemergence, Rate 500 g/ha, scale of 0 to 10 where 0 is no effect and 10 is complete control
[21] = Rate 62 g/ha, Postemergence, scale 0 to 10 (0 no effect, 10 complete control)
[22] = Rate 250 g/ha, Postemergence, scale of 0 to 10 where 0 is no effect and 10 is complete control
[23] = Rate 500 g/ha, Postemergence, scale 0 to 10, 0 no effect, 10 complete control
[24] = Rate 62 g/ha, headed Pre-emergence (flood test species), scale 0 to 10 (0 no effect, 10 complete control)
[25] = Rate 125 g/ha, Pre-emergence, flood test species, scale 0 to 10 where 0 is no effect and 10 is complete control
[26] = Rate 250 g/ha, Pre-emergence, flood-test species, scale 0 to 10, 0 is no effect, 10 is complete control
[27] = Rate 500 g/ha, Pre-emergence, flood test species, scale 0 to 10 (0 no effect, 10 complete control)

CC(C)N(C(=O)n1oc(=O)n(C2CC3CCC2C3)c1=O)c1ccc(F)cc1 (stereo not drawn) [Compound 327]
1: Plant response rating, Wheat [2, 23] | Plant response rating, Crabgrass [3, 23] | B. signalgrass plant response rating [4, 19] | Redroot pigweed plant response rating [13, 19]
8: Plant response rating, Morningglory [1, 17] | Plant response rating, Morningglory [1, 22] | Giant foxtail plant response rating (0 to 10 scale) ([8]; Preemergence, Rate 125 g/ha)
0: Morningglory plant response rating [1, 18] | Morningglory plant response rating (0 to 10 scale) ([1]; Preemergence, Rate 125 g/ha) | Morningglory plant response rating [1, 19] | Morningglory plant response rating [1, 20] | Plant response rating, Wheat [2, 17] | Wheat plant response rating [2, 18] | Wheat plant response rating [2, 21] | Plant response rating, Wheat [2, 22] | Plant response rating, Crabgrass [3, 17] | Crabgrass plant response rating [3, 18] | Crabgrass plant response rating [3, 21] | Plant response rating, Crabgrass [3, 22] | Plant response rating, B. signalgrass [4, 17] | B. signalgrass plant response rating [4, 18] | B. signalgrass plant response rating (0 to 10 scale, 0 is no effect, 10 is complete control) ([4]; Preemergence, Rate 125 g/ha) | B. signalgrass plant response rating [4, 21] | Plant response rating, B. signalgrass [4, 22] | Plant response rating, B. signalgrass [4, 23] | Plant response rating, Cocklebur [5, 17] | Cocklebur plant response rating [5, 18] | Cocklebur plant response rating (0 to 10 scale) ([5]; Preemergence, Rate 125 g/ha) | Cocklebur plant response rating [5, 19] | Cocklebur plant response rating [5, 20] | Cocklebur plant response rating [5, 21] | Plant response rating, Cocklebur [5, 22] | Plant response rating, Cocklebur [5, 23] | Plant response rating, Wild oats [6, 17] | Wild oats plant response rating [6, 18] | Wild oats plant response rating (0 to 10 scale) ([6]; Preemergence, Rate 125 g/ha) | Wild oats plant response rating [6, 19] | Wild oats plant response rating [6, 21] | Plant response rating, Wild oats [6, 22] | Plant response rating, Wild oats [6, 23] | Rice plant response rating [7, 24] | Rice plant response rating [7, 25] | Rice plant response rating [7, 26] | Rice plant response rating [7, 27] | Plant response rating, Giant foxtail [8, 17] | Giant foxtail plant response rating [8, 21] | Plant response rating, Giant foxtail [8, 22] | Plant response rating, Giant foxtail [8, 23] | Barnyardgrass plant response rating [9, 24] | Barnyardgrass plant response rating [9, 25] | Barnyardgrass plant response rating [9, 27] | Plant response rating, Nutsedge [10, 17] | Nutsedge plant response rating (0 to 10 scale) ([10]; Preemergence, Rate 125 g/ha) | Nutsedge plant response rating [10, 19] | Nutsedge plant response rating [10, 20] | Nutsedge plant response rating [10, 21] | Plant response rating, Nutsedge [10, 22] | Plant response rating, Nutsedge [10, 23] | Plant response rating, Blackgrass [12, 17] | Blackgrass plant response rating [12, 18] | Blackgrass plant response rating (0 to 10 scale) ([12]; Preemergence, Rate 125 g/ha) | Blackgrass plant response rating [12, 21] | Redroot pigweed plant response rating [13, 18] | Redroot pigweed plant response rating (0 to 10 scale) ([13]; Preemergence, Rate 125 g/ha) | Plant response rating, Sugarbeets [14, 17] | Sugarbeets plant response rating [14, 18] | Sugarbeets plant response rating (0 to 10 scale) ([14]; Preemergence, Rate 125 g/ha) | Sugarbeets plant response rating [14, 19] | Sugarbeets plant response rating [14, 21] | Plant response rating, Sugarbeets [14, 22] | Plant response rating, Sugarbeets [14, 23] | Ducksalad plant response rating [15, 24] | Ducksalad plant response rating [15, 25] | Ducksalad plant response rating [15, 26] | Ducksalad plant response rating [15, 27] | Plant response rating, Velvetleaf [16, 17] | Velvetleaf plant response rating [16, 18] | Velvetleaf plant response rating (0 to 10 scale) ([16]; Preemergence, Rate 125 g/ha) | Velvetleaf plant response rating [16, 19] | Velvetleaf plant response rating [16, 20] | Velvetleaf plant response rating [16, 21] | Plant response rating, Velvetleaf [16, 22] | Plant response rating, Velvetleaf [16, 23]
5: Crabgrass plant response rating [3, 20] | Plant response rating, Redroot pigweed [13, 17]
7: Morningglory plant response rating [1, 21] | B. signalgrass plant response rating [4, 20] | Giant foxtail plant response rating [8, 18] | Plant response rating, Bedstraw ([11]; Rate 125 g/ha, scale 0 to 10, 0 is no effect, 10 is complete control) | Bedstraw plant response rating ([11]; Rate 62 g/ha, scale 0 to 10 (0 no effect, 10 complete control)) | Plant response rating, Bedstraw ([11]; Rate 250 g/ha, scale of 0 to 10 where 0 is no effect and 10 is complete control) | Blackgrass plant response rating [12, 20] | Plant response rating, Blackgrass [12, 23] | Plant response rating, Redroot pigweed [13, 23]
4: Wheat plant response rating [2, 20] | Wild oats plant response rating [6, 20] | Blackgrass plant response rating [12, 19] | Redroot pigweed plant response rating [13, 21]
9: Giant foxtail plant response rating [8, 19] | Giant foxtail plant response rating [8, 20]
2: Crabgrass plant response rating (0 to 10 scale) ([3]; Preemergence, Rate 125 g/ha)
6: Plant response rating, Redroot pigweed [13, 22]
10: Plant response rating, Morningglory [1, 23]
3: Crabgrass plant response rating [3, 19] | Barnyardgrass plant response rating [9, 26] | Plant response rating, Blackgrass [12, 22] | Redroot pigweed plant response rating [13, 20] | Sugarbeets plant response rating [14, 20]

Source: patent US6737383B1, “Herbicidal oxadiazolidines” (priority 1999, dated 2004)
